Laboratory results taken from US8440666B2, “Pyridazinone compounds and P2X7 receptor inhibitors” (Nissan Chemical Industries, Ltd., priority 2007, dated 2013).

Columns and labels:
[1] = target: T1, Human P2X7 (hP2X7) receptor (Homo sapiens, UniProt Q99572); experiment: Dye assay: BzATP-induced Yo-Pro-1 uptake in HEK293 cells stably expressing hP2X7; format: cell-based; conditions: 90 min incubation
T1 construct: myc-His (from the pcDNA3.1/myc-HisA vector); expressed in transfected cells
T1 sequence (Q99572 1-595): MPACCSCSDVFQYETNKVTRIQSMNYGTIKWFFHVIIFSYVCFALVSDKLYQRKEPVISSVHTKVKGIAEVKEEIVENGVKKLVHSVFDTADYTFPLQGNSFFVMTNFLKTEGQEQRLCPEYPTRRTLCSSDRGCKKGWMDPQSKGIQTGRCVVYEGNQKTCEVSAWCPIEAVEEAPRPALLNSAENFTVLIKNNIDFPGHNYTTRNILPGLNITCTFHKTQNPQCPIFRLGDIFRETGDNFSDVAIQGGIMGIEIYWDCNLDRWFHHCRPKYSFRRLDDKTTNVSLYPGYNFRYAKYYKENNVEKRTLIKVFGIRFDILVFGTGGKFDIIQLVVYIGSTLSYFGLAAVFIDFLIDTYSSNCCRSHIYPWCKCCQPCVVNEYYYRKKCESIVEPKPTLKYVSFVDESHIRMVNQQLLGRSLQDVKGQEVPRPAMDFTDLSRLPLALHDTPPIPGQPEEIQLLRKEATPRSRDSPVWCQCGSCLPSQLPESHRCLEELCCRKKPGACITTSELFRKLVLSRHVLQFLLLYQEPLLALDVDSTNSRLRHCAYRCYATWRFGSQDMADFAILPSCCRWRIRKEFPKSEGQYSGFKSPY
In short: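 HEK293 cells stably expressing cloned human P2X7 (595 aa) were preincubated 30 min with compound, then given 2 μM Yo-Pro-1 and 0.1 mM BzATP (final) for 90 min. Dye uptake read by fluorescence (ex 485/em 535 nm); IC50 derived from % inhibition versus log concentration.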

[2] = system: IL-1β in supernatants of peripheral blood mononuclear cells; experiment: IL-1β assay: BzATP- or ATP-induced IL-1β release from LPS-treated human peripheral blood mononuclear cells; format: cell-based; conditions: 2 h; IL-1β in supernatants of LPS-treated human PBMC; BzATP (1 mM) or ATP (5 mM), 120 min
Experimental: Human whole blood from healthy volunteers was diluted with equal volume of saline and peripheral blood mononuclear cells were collected by using a Limphoprep tube (Daiichi Pure Chemicals), washed with physiological saline and seeded onto a 96-well plate with a medium containing 1-10 ng/mL LPS (SIGMA). 30 minutes later, the cells were treated with varying concentrations of various compounds and incubated for 30 minutes. Then, the cells were treated with BzATP (final concentration 1 mM) or ATP (final concentration 5 mM) and incubated for 120 minutes. The cells were centrifugated to collect supernatents, and the concentration of IL-1β in supernatants were determined by IL-1β HTRF kit (CIS biointernational). The % inhibition rates were calculated and plotted against the logarithms of the concentrations to determine IC50.

[3] = BzATP 0.1 mM, Yo-Pro-1 2 μM, 30 min pre-treatment
[4] = BzATP (0.1 mM)-induced Yo-Pro-1 uptake, compounds 30 min pre-treatment

Compound	IC50 [1, 3]	IC50 [2]	IC50 [1, 4]
C[C@@H]1[C@H]2C[C@@H](C[C@H]1Nc1cnn(CC(=O)NCc3ccncc3)c(=O)c1Br)C2(C)C [compound 9]	–	47 nM	3.5 nM
CCN(CC)c1ccc(C(=O)Cn2ncc(N[C@@H]3C[C@@H]4C[C@H]([C@H]3C)C4(C)C)c(Br)c2=O)cc1 [compound 84]	–	82 nM	4.1 nM
CCC(NC(=O)Cn1ncc(N[C@@H]2C[C@@H]3C[C@H]([C@H]2C)C3(C)C)c(Br)c1=O)c1ccncc1 (some centres unmarked) [compound 171]	–	33 nM	4.3 nM

Next, values leading:

IC50 [1, 3]	IC50 [2]	IC50 [1, 4]	Compound
3.2 nM	36 nM	–	C[C@@H]1[C@H]2C[C@@H](C[C@H]1Nc1cnn(CC(=O)NCc3ccnnc3N(C)C)c(=O)c1Cl)C2(C)C [compound 435]
6.2 nM	51 nM	–	C[C@@H]1[C@H]2C[C@@H](C[C@H]1Nc1cnn(CC(=O)NCc3ccnnc3Cl)c(=O)c1Cl)C2(C)C [compound 433]
–	38 nM	12 nM	COc1cnccc1CNC(=O)Cn1ncc(N[C@@H]2C[C@@H]3C[C@H]([C@H]2C)C3(C)C)c(Br)c1=O [compound 216]
1.7 nM	27 nM	–	C[C@@H]1[C@H]2C[C@@H](C[C@H]1Nc1cnn(CC(=O)NCc3ccncc3S(C)(=O)=O)c(=O)c1Cl)C2(C)C [compound 442]
